From ChEMBL document CHEMBL2331280, “Cytotoxic, antitopoisomerase IIα, and anti-HIV-1 activities of triterpenoids isolated from leaves and twigs of Gardenia carinata” (J Nat Prod, 2013) come the findings set out here.

The structures appear in SMILES notation. Active and inactive are the calls of the source. The rule behind the calls is not given here.

The nature of data set [1]: Selectivity index, ratio of IC50 for human 1A2 cells to EC50 for deltaTat/rev deffective HIV-1 MC99 infected in human 1A2 cells. The format is toxicity, cell-based. Particulars: read-out: Ratio IC50/EC50.
Data set [2] addresses Human immunodeficiency virus type 1 reverse transcriptase (Human immunodeficiency virus 1) (UniProt Q72547). The data set is described as follows: Inhibition of HIV-1 reverse transcriptase assessed as decrease in incorporation of [3H]TTP into polyA template at 200 ug/ml.
Data set [3] has as its system Human immunodeficiency virus 1. In words: Antiviral activity against deltaTat/rev deffective HIV-1 MC99 infected in human 1A2 cells assessed as inhibition of syncytia formation after 3 days. It counts as functional, organism-based. The note with it: Human immunodeficiency virus 1, MC99, 1A2, 72 h.
Data set [4] in a line: Cytotoxicity against human 1A2 cells assessed as inhibition of metabolic activity by XTT assay. It counts as ADME, cell-based. (In general: Tetrazolium assays rely on reduction of a dye to a coloured formazan, in cell work by metabolically active cells.)
A short description of data set [5]: Cytotoxicity against rat ASK cells after 72 hrs by sulforhodamine B assay. It counts as functional. Particulars: read-out: ED50 (the source's name). For orientation: Sulforhodamine B stains cellular protein and so reports cell mass.
The next data set concerns HEK293. The data set is described as follows: Cytotoxicity against human HEK293 cells after 72 hrs by sulforhodamine B assay. It counts as functional. The note with it: HEK293, 72 h, read-out: ED50 (the source's name).
The subject of a further data set is Lu1. The data set is described as follows: Cytotoxicity against human Lu1 cells after 72 hrs by sulforhodamine B assay. The format is functional. The note with it: Lu1, 72 h, read-out: ED50 (the source's name).
The subject of a further data set is MCF7. The data set is described as follows: Cytotoxicity against human MCF7 cells after 72 hrs by sulforhodamine B assay. It counts as functional. The note with it: MCF7, 72 h, read-out: ED50 (the source's name).
Another data set relates to KB. In words: Cytotoxicity against human KB cells after 72 hrs by sulforhodamine B assay. The format is functional. The note with it: read-out: ED50 (the source's name).
A further data set concerns Col2. The data set is described as follows: Cytotoxicity against human Col2 cells after 72 hrs by sulforhodamine B assay. It counts as functional. Particulars: Col2, 72 h, read-out: ED50 (the source's name).
The next data set relates to P388. In words: Cytotoxicity against mouse P388 cells after 48 hrs by sulforhodamine B assay. The format is functional. The note with it: P388, 48 h, read-out: ED50 (the source's name).
Data set [6] concerns the target DNA topoisomerase 2-alpha (Homo sapiens) (UniProt P11388). The data set is described as follows: Inhibition of human DNA topoisomerase 2 alpha-mediated supercoiled pBR322 DNA relaxation at 20 uM after 1 hr by agarose gel electrophoresis.
Data set [7] addresses Human immunodeficiency virus type 1 reverse transcriptase (Human immunodeficiency virus 1, UniProt Q72547). The data set is described as follows: Inhibition of HIV-1 reverse transcriptase assessed as decrease in incorporation of [3H]TTP into polyA template.

DNA topoisomerase 2-alpha (Homo sapiens), sequence (P11388 whole entry): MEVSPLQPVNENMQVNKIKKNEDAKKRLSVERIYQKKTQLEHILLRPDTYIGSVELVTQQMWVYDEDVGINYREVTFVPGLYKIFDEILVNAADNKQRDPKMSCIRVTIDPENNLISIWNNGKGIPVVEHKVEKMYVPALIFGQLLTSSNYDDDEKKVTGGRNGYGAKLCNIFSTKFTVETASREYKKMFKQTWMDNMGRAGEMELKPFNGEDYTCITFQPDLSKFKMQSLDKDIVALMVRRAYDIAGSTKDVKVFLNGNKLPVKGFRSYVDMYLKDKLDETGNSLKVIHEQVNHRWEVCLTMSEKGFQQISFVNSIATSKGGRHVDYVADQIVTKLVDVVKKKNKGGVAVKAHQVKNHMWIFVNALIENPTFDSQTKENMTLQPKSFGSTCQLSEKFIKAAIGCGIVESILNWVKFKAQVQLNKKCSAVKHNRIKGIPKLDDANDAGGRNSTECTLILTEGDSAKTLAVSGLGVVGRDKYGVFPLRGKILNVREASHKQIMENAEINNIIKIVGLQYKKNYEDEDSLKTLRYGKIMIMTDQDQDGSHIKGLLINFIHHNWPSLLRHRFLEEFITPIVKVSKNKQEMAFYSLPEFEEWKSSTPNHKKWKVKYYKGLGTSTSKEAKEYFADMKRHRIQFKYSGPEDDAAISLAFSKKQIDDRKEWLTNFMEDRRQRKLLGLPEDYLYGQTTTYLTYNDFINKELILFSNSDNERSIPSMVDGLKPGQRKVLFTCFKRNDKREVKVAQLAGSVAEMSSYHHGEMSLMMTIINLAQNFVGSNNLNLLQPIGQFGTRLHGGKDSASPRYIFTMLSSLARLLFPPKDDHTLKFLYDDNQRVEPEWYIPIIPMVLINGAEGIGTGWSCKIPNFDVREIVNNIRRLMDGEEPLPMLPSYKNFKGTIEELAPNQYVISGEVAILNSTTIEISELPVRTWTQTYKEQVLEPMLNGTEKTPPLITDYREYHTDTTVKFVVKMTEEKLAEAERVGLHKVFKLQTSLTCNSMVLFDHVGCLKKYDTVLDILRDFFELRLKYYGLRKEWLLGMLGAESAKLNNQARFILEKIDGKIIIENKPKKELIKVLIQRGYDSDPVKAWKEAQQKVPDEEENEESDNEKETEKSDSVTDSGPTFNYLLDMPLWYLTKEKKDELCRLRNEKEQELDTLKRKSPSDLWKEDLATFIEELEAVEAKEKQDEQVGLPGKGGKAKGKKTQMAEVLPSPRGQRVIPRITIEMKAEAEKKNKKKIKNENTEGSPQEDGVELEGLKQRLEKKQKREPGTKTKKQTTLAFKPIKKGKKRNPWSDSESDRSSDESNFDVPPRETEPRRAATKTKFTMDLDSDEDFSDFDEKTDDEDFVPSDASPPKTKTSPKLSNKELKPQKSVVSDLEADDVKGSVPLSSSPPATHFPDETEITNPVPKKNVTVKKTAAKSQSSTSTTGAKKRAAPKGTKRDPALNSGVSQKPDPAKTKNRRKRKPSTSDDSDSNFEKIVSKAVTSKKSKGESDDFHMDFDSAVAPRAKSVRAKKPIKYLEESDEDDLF

`C=C1COC(=O)CC[C@]23C[C@]24CC[C@]2(C)[C@@H]([C@H](C)CC(=O)C=C(C)C)CC[C@@]2(C)[C@@H]4CC[C@@H]13` (relative stereo): the selectivity ratio in [1] is > 3.4. For the same compound, the inhibition in data set [2] is 11.6%. The EC50 in data set [3] was 41.3 µM; in data set [5], > 10 µM; in the data set on HEK293, > 10 µM; in the data set with Lu1, > 10 µM; with MCF7, > 10 µM; in the data set with KB, > 10 µM. The EC50 with Col2 and with P388 was > 10 µM in each case. For the same compound, in [4], the 50% inhibitory concentration (IC50) is > 138 µM.
Consider `CC(C)CC(=O)C[C@@H](C)[C@H]1CC[C@@]2(C)[C@@H]3CC[C@H]4[C@](C)(C(=O)O)[C@@H](O)CC[C@@]45C[C@@]35CC[C@]12C` (relative stereo), for which the selectivity ratio in [1] was 1.2. For the same compound, the inhibition in data set [2] is 1.9%. The EC50 is 62.7 µM in data set [3]; > 10 µM in [5]; > 10 µM in the data set with HEK293; > 10 µM in the data set with Lu1; > 10 µM in the data set with MCF7; > 10 µM in the data set on KB. In addition, the figures for the EC50 in the data set with Col2 and in the data set on P388 were > 10 µM and 6.8 µM, respectively. Besides, the concentration for half-maximal inhibition (IC50) in data set [4] was 72.5 µM. The inhibition entry in data set [6] is “Active”.
Turning to `C=C(C(=O)O)[C@@H]1CC[C@@H]2[C@]3(CC[C@]4(C)[C@@H]([C@H](C)CC(=O)C=C(C)C)CC[C@@]24C)C[C@]13CCC(=O)O`, the IC50 in data set [7] stood at 68.7 µM; in data set [4] it was 57.7 µM. In [1], the selectivity ratio is > 7. Also, in [2], the inhibition is 88.1%. Further, the EC50 in [3] is < 8.3 µM; in data set [5], > 10 µM; with HEK293, > 10 µM; in the data set with Lu1, > 10 µM; with MCF7, > 10 µM; in the data set on KB, > 10 µM. In addition, the EC50 in the data set with Col2 and in the data set on P388 was > 10 µM throughout.
Turning to `C=C1C(=O)O[C@@H]2C[C@@H]3[C@]4(CC[C@]5(C)[C@@H]([C@H](C)CC(=O)C=C(C)C)CC[C@@]35C)C[C@]4(CCC(=O)O)[C@H]12` (relative stereo), the IC50 in data set [7] was 85.7 µM; in data set [4] it was < 8.1 µM. The inhibition in data set [2] was 81.2%. Also, the inhibition result in data set [6] was “Active”. Moreover, the EC50 in [5] was > 10 µM; with HEK293, 5.2 µM; in the data set on Lu1, > 10 µM; with MCF7, 7.7 µM; in the data set with KB, 7.3 µM; in the data set with Col2, > 10 µM. Moreover, the EC50 in the data set with P388 turned out to be 2.9 µM.
Take `CC(C)CC(=O)C[C@@H](C)[C@H]1CC[C@@]2(C)[C@@H]3CC[C@H]4[C@](C)(C(=O)O)[C@@H](O)C[C@H](O)[C@@]45C[C@@]35CC[C@]12C` [CARINATIN A]: the selectivity ratio in data set [1] is 1.8. Further, in [2], the inhibition stood at 6%. The EC50 in data set [3] is 15.4 µM; in [5], > 10 µM; with HEK293 it was > 10 µM; in the data set with Lu1, > 10 µM; in the data set with MCF7 it was > 10 µM; with KB, > 10 µM. The EC50 with Col2 and in the data set on P388 was > 10 µM each time. For the same compound, the IC50 in data set [4] worked out at 27 µM.
Regarding `Cc1cn([C@H]2C[C@H](N=[N+]=[N-])[C@@H](CO)O2)c(=O)[nH]c1=O` [ZIDOVUDINE], in data set [3], the EC50 stood at 0.00395 µM. Also, the IC50 in data set [4] is > 10000 µM.
For `C=C(CO)[C@@H]1CC[C@@H]2[C@H](CC[C@]3(C)[C@@H]([C@H](C)CC(=O)C=C(C)C)CC[C@@]23C)C[C@]12CCC(=O)O2` [CARINATIN G], the selectivity ratio in [1] was 3.4. For the same compound, in data set [2], the inhibition was 25.5%. In addition, the EC50 in data set [3] is 13.4 µM; in [5] it was > 10 µM; in the data set on HEK293, > 10 µM; with Lu1 it was > 10 µM; in the data set with MCF7, > 10 µM; with KB, > 10 µM. Also, the values for the EC50 in the data set with Col2 and in the data set with P388 were > 10 µM and 4.9 µM, respectively. In [4], the half-maximal inhibitory concentration (IC50) turned out to be 46 µM. Moreover, in data set [6], the inhibition entry was “Active”.
As to `Cc1c2ccncc2c(C)c2c1[nH]c1ccccc12` [ELLIPTECINE], the EC50 in data set [5] is 2.2 µM; in the data set on HEK293, 1.9 µM; with Lu1, 1.1 µM; with MCF7, 2.3 µM; with KB it was 2.2 µM; in the data set on Col2 it was 2.2 µM. For the same compound, the EC50 with P388 turned out to be 1.9 µM.
Consider `COc1cc2c(ccc3c4cc(OC)c(OC)cc4c[n+](C)c23)cc1O` [FAGARONINE], for which, in data set [7], the IC50 is 26.5 µM.
Regarding `C=C(C(=O)O)[C@@H]1CC[C@@H]2[C@]3(CC[C@]4(C)[C@@H]([C@H](C)CC(=O)C=C(C)C)CC[C@@]24C)C[C@]13CCC(=O)OC` (relative stereo), the selectivity ratio in data set [1] was found to be 1.6. The inhibition in data set [2] is 63.7%. Also, the EC50 in data set [3] was 43 µM; in [5], > 10 µM; in the data set on HEK293, > 10 µM; with Lu1 it was > 10 µM; in the data set with MCF7, > 10 µM; in the data set on KB it was > 10 µM. The EC50 in the data set on Col2 and in the data set with P388 was > 10 µM each time. For the same compound, in [4], the IC50 is 69.5 µM.
For the compound `C=C1C(=O)O[C@@H]2C[C@@H]3[C@]4(CC[C@]5(C)[C@@H]([C@H](C)CC(=O)C=C(C)C)CC[C@@]35C)C[C@]4(CCC(=O)OC)[C@H]12` [SECAUBRYOLIDE], the inhibition in [2] came to 0.4%. Further, the concentration for half-maximal inhibition (IC50) in [4] is < 7.9 µM. For the same compound, in [6], the inhibition entry was “Active”. Also, the EC50 in data set [5] was determined as 4.6 µM; in the data set on HEK293, 3.2 µM; in the data set with Lu1 it was 5 µM; with MCF7, 4.2 µM; with KB, 2 µM; in the data set on Col2, 5.8 µM. Moreover, in the data set on P388, the EC50 is 1 µM.
On to `COc1cc([C@@H]2c3cc4c(cc3[C@@H](O[C@@H]3O[C@@H]5CO[C@@H](C)O[C@H]5[C@H](O)[C@H]3O)[C@H]3COC(=O)[C@H]23)OCO4)cc(OC)c1O`, for which the inhibition in data set [6] is 59%.
For `C=C1C(=O)O[C@@H]2C[C@@H]3[C@]4(CC[C@]5(C)[C@@H]([C@H](C)CC(=O)CC(C)(C)O)CC[C@@]35C)C[C@]4(CCC(=O)OC)[C@H]12` (relative stereo), the inhibition in data set [2] was 35.9%. The half-maximal inhibitory concentration (IC50) in data set [4] was < 15.2 µM. Also, the inhibition result in data set [6] was “Active”. Besides, the EC50 in data set [5] was determined as 5.8 µM; in the data set on HEK293 it was 4.1 µM; in the data set with Lu1 it was 7.2 µM; in the data set on MCF7, 5.2 µM; in the data set with KB, 6.8 µM; in the data set with Col2, 6.2 µM. Further, the EC50 with P388 is 1.4 µM.

The term inhibition denotes the drop in the measured response relative to a control, in per cent. Broadly, the IC50 is the concentration that gives 50% inhibition.
